Reference: publication PMC9860728, “Identification of New N-methyl-piperazine Chalcones as Dual MAO-B/AChE Inhibitors” (Pharmaceuticals, 2023)

Legend:
MAO-A = biological target: T1, MAO-A (Homo sapiens, UniProt P21397); test: MAO-A enzyme inhibition assay (kynuramine substrate); type: biochemical; settings: mean ± SD; for remaining activity at 10 µM: read-out: Residual Activities at 10 μM (%) MAO-A
T1 construct: purchased Sigma Aldrich
T1 sequence (P21397 1-527): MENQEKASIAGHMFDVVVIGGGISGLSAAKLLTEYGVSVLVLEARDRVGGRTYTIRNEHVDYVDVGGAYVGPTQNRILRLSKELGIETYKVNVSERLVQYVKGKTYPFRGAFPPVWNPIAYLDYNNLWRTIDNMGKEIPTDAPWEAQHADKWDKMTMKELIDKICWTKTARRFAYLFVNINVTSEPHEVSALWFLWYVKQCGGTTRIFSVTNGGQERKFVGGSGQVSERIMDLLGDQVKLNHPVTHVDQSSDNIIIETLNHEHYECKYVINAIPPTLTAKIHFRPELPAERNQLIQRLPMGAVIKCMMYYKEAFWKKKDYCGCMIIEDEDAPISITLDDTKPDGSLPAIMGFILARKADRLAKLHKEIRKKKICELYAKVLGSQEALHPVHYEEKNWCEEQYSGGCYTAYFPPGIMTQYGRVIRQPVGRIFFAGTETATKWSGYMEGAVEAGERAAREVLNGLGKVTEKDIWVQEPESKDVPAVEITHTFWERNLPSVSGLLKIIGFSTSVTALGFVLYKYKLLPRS
Procedure: (§1) MAO assays were performed as described previously, i.e., ~0.09 U/mL of MAO-A and MAO-B were reacted with 0.06 mM kynuramine and 0.3 mM benzylamine, respectively, in 50 mM sodium phosphate (pH 7.2). […] For inhibition assay, the compounds were dissolved in DMSO and added into the reaction mixture. The final concentration of DMSO in the reaction mixture was less than 1% to avoid solvent disturbance.

MAO-B = biological target: T2, MAO-B (Homo sapiens, UniProt P27338); test: MAO-B enzyme inhibition assay (benzylamine substrate); type: biochemical; settings: for remaining activity at 10 µM: read-out: Residual Activities at 10 μM (%) MAO-B; for SI (MAO): MAO-B selectivity over MAO-A, based on IC50 values
T2 construct: purchased Sigma Aldrich
T2 sequence (P27338 1-520): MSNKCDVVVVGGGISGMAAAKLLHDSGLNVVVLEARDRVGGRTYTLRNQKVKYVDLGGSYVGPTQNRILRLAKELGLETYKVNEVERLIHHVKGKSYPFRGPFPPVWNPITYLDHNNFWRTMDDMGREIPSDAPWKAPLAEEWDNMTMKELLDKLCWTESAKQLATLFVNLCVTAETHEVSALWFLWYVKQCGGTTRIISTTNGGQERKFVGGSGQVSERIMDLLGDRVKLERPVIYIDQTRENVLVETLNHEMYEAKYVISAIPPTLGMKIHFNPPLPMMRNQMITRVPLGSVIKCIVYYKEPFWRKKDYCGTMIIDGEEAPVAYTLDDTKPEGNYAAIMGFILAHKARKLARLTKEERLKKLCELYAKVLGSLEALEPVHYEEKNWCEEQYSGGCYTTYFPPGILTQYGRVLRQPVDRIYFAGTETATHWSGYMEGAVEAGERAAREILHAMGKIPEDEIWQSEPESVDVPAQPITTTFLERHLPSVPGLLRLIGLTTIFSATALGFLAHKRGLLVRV
Procedure: as §1

BChE = BChE (Equus caballus, UniProt P81908); test: biochemical; settings: read-out: Residual Activities at 10 μM (%) BChE
Sequence of BChE (P81908 whole entry): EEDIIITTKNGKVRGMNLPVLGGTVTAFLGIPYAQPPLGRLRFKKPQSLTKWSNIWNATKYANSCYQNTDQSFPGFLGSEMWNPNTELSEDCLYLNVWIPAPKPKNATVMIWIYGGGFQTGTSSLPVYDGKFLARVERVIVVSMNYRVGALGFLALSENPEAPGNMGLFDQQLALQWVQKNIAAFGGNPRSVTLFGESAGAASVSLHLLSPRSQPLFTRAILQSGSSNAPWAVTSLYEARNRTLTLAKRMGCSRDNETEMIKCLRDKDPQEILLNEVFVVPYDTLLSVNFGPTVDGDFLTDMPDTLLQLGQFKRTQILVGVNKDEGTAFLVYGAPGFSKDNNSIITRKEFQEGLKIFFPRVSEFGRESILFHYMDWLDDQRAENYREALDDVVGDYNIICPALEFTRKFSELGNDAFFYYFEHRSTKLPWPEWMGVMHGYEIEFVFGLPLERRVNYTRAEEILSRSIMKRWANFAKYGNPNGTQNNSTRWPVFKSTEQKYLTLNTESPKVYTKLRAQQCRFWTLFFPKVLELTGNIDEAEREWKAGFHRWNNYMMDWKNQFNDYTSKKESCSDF
Procedure: (§2) For measuring cholinesterase (ChE) activity, the Ellman method was employed with a slight modification. The AChE and BchE with ~0.02 U/mL were reacted with 0.5 mM ATCI and BTCI, respectively, followed by addition of 0.5 mM DTNB. […] In the inhibition assay, the enzyme and the compound were preincubated in reaction buffer for 15 min, followed by adding substrates and DTNB.

AChE = AChE (Electrophorus electricus, UniProt O42275); test: AChE inhibition assay (Ellman method, ATCI); type: biochemical; settings: for Residual Activities at 10 μM (%) AChE / remaining activity at 10 µM: 10 μM compound, mean ± SD; for SI (ChE): AChE selectivity over BChE, based on IC50 values; for remaining activity at 10 µM: read-out: Residual Activities at 10 μM (%) AChE
Sequence of AChE (O42275 24-633): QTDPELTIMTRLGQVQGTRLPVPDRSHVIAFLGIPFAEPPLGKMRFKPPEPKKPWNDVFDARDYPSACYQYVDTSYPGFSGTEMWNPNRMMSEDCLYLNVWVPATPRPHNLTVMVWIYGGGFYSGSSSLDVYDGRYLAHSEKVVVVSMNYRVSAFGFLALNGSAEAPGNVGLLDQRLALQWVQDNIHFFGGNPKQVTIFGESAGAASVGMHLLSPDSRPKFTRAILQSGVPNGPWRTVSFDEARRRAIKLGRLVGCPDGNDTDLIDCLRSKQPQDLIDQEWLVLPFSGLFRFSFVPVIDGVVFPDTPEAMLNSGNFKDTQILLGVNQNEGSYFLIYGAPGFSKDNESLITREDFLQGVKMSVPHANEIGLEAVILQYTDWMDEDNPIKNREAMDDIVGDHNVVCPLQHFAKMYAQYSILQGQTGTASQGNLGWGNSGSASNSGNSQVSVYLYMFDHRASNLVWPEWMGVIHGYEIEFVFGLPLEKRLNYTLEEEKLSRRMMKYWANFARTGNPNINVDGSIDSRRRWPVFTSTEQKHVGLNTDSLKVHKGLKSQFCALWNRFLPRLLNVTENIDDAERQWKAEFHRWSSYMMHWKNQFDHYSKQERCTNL
Procedure: as §2

Row | Compound | remaining activity at 10 µM (MAO-A; 10 μM compound) | IC50 (MAO-A) | remaining activity at 10 µM (MAO-B; 10 μM compound, mean ± SD) | SI (MAO) (MAO-B) | IC50 (MAO-B; mean ± SD) | remaining activity at 10 µM (BChE) | Residual Activities at 10 μM (%) AChE (AChE) | SI (ChE) (AChE) | remaining activity at 10 µM (AChE) | Residual Activities at 10 μM (%) MAO-B (MAO-B; 10 μM compound, mean ± SD) | Residual Activities at 10 μM (%) MAO-A (MAO-A; 10 μM compound)
1 | CC(C)c1ccc(/C=C/C(=O)c2ccc(N3CCN(C)CC3)cc2)cc1 [Compound 2e, (E)-3-(4-isopropylphenyl)-1-(4-(4-methylpiperazin-1-yl)phenyl)prop-2-en-1-one] | 60.6 ± 3.98% | 16.2 ± 1.74 µM | 44.1 ± 3.04% | 1.94 | 8.36 ± 0.39 µM | 49.3 ± 1.28% | 17.75 ± 1.85% | 3.83 | – | – | –
2 | CN1CCN(c2ccc(C(=O)/C=C/c3cccc(C(F)(F)F)c3)cc2)CC1 [Compound 2a, (E)-1-(4-(4-methylpiperazin-1-yl)phenyl)-3-(3-(trifluoromethyl)phenyl)prop-2-en-1-one] | 118 ± 7.73% | > 40 µM | 12.8 ± 0.79% | 15.50 | 2.58 ± 0.19 µM | 58.6 ± 6.8% | – | 2.44 | 34.9 ± 5.19% | – | –
3 | CN1CCN(c2ccc(C(=O)/C=C/c3ccc(F)cc3F)cc2)CC1 [Compound 2q, (E)-3-(2,4-difluorophenyl)-1-(4-(4-methylpiperazin-1-yl)phenyl)prop-2-en-1-one] | 72.7 ± 3.31% | 16.5 ± 1.75 µM | 13.1 ± 2.06% | 5.45 | 3.03 ± 0.13 µM | 55.3 ± 0.68% | – | 1.71 | 33.78 ± 0.27% | – | –
4 | CN1CCN(c2ccc(C(=O)/C=C/c3ccc(F)cc3)cc2)CC1 [Compound 2c, (E)-3-(4-fluorophenyl)-1-(4-(4-methylpiperazin-1-yl)phenyl)prop-2-en-1-one] | 103 ± 8.84% | > 40 µM | 22.7 ± 1.61% | 13.42 | 2.98 ± 0.18 µM | 49.7 ± 3.7% | – | 1.79 | 49.4 ± 4.66% | – | –
5 | CN1CCN(c2ccc(C(=O)/C=C/c3cc(C(F)(F)F)cc(C(F)(F)F)c3)cc2)CC1 [Compound 2j, (E/Z)-3-(3,5-bis(trifluoromethyl)phenyl)-1-(4-(4-methylpiperazin-1-yl)phenyl)prop-2-en-1-one] | 97.1 ± 4.04% | > 40 µM | 67.8 ± 5.36% | 2.55 | 15.7 ± 1.17 µM | 86 ± 1.04% | – | >2.60 | 57.1 ± 5.39% | – | –
6 | CN1CCN(c2ccc(C(=O)/C=C/c3ccc(Cl)c(C(F)(F)F)c3)cc2)CC1 [Compound 2l, (E)-3-(4-chloro-3-(trifluoromethyl)phenyl)-1-(4-(4-methylpiperazin-1-yl)phenyl)prop-2-en-1-one] | 85.9 ± 1.66% | > 40 µM | – | 28.37 | 1.41 ± 0.04 µM | 73 ± 1.75% | – | 1.85 | 68.5 ± 1.32% | 0.00 ± 1.79% | –
7 | CN1CCN(c2ccc(C(=O)/C=C/c3ccc(C#N)cc3)cc2)CC1 [Compound 2d, (E)-4-(3-(4-(4-methylpiperazin-1-yl)phenyl)-3-oxoprop-1-en-1-yl)benzonitrile] | 72.3 ± 2.5% | > 40 µM | 16.7 ± 4.71% | 18.18 | 2.2 ± 0.06 µM | 71.5 ± 5.25% | – | 10.38 | 24.3 ± 0.95% | – | –
8 | CSc1ccc(/C=C/C(=O)c2ccc(N3CCN(C)CC3)cc2)cc1 [Compound 2g, (E)-1-(4-(4-methylpiperazin-1-yl)phenyl)-3-(4-(methylthio)phenyl)prop-2-en-1-one] | 97.2 ± 1.99% | > 40 µM | 40 ± 1.67% | 5.93 | 6.74 ± 0.03 µM | 74.7 ± 4.48% | – | >3.22 | 50.4 ± 4.43% | – | –
9 | COc1ccc(/C=C/C(=O)c2ccc(N3CCN(C)CC3)cc2)c(C(F)(F)F)c1 [Compound 2p, (E)-3-(4-methoxy-2-(trifluoromethyl)phenyl)-1-(4-(4-methylpiperazin-1-yl)phenyl)prop-2-en-1-one] | 44.5 ± 3.31% | 6.67 ± 0.63 µM | 15 ± 3.93% | 3.06 | 2.18 ± 0.01 µM | 28.9 ± 4.08% | – | 1.06 | 37.8 ± 7.64% | – | –
10 | CN1CCN(c2ccc(C(=O)/C=C/c3cc(F)cc(C(F)(F)F)c3)cc2)CC1 [Compound 2i, (E)-3-(3-fluoro-5-(trifluoromethyl)phenyl)-1-(4-(4-methylpiperazin-1-yl)phenyl)prop-2-en-1-one] | 114 ± 6.06% | > 40 µM | 20.4 ± 2.47% | 17.17 | 2.33 ± 0.14 µM | 63.7 ± 6.24% | – | 1.82 | 51.5 ± 4.92% | – | –
11 | CN1CCN(c2ccc(C(=O)/C=C/c3ccc(N(C)C)cc3)cc2)CC1 [Compound 2f, (E)-3-(4-(dimethylamino)phenyl)-1-(4-(4-methylpiperazin-1-yl)phenyl)prop-2-en-1-one] | 83.6 ± 4.22% | > 40 µM | 21.3 ± 3.77% | 12.16 | 3.29 ± 0.08 µM | 76.5 ± 3.35% | 26.37 ± 1.85% | >13.20 | – | – | –
12 | CN1CCN(c2ccc(C(=O)/C=C/c3ccc(OC(F)F)cc3)cc2)CC1 [Compound 2h, (E)-3-(4-(difluoromethoxy)phenyl)-1-(4-(4-methylpiperazin-1-yl)phenyl)prop-2-en-1-one] | 55.2 ± 4.12% | > 40 µM | 17.3 ± 3.77% | 6.51 | 6.14 ± 0.43 µM | 73.9 ± 3.35% | – | >6.87 | 38 ± 0.92% | – | –
13 | COc1cc(/C=C/C(=O)c2ccc(N3CCN(C)CC3)cc2)ccc1F [Compound 2m, (E)-3-(4-fluoro-3-methoxyphenyl)-1-(4-(4-methylpiperazin-1-yl)phenyl)prop-2-en-1-one] | 78.8 ± 1.66% | > 40 µM | 39.9 ± 6.26% | 5.92 | 6.76 ± 0.82 µM | 66.8 ± 2.1% | – | 4.18 | 27.6 ± 1.9% | – | –
14 | CN1CCN(c2ccc(C(=O)/C=C/c3cc(C(F)(F)F)ccc3Cl)cc2)CC1 [Compound 2o, (E)-3-(2-chloro-5-(trifluoromethyl)phenyl)-1-(4-(4-methylpiperazin-1-yl)phenyl)prop-2-en-1-one] | 92.5 ± 4.23% | > 40 µM | 22.9 ± 2.26% | 12.50 | 3.2 ± 0.32 µM | 6.46 ± 3.05% | – | 0.31 | 37.6% | – | –
15 | CN1CCN(c2ccc(C(=O)/C=C/c3ccc(C(F)(F)F)cc3)cc2)CC1 [Compound 2b, (E)-1-(4-(4-methylpiperazin-1-yl)phenyl)-3-(4-(trifluoromethyl)phenyl)prop-2-en-1-one] | – | > 40 µM | 21 ± 4.02% | 12.90 | 3.1 ± 0.04 µM | 58.5 ± 1.38% | – | 5.92 | 19 ± 0.55% | – | 88.19 ± 6.87%
